What all share (type): cell-based
In experiment [1] the test system is β-adrenergic receptor (β2), guinea-pig tracheal ring. The experiment is described as follows: Guinea-pig tracheal ring (β2): inhibition of isoprenaline-induced relaxation. Particulars: Table I; ratio of ED50 tracheal ring / ED50 right atrium. The source says:
(§1) 2. GUINEA-PIG TRACHEAL RING (β2)
(§2) The trachea is dissected from guinea-pigs (400±50 g). Four rings, approximately 8 mm in width, are then cut from each trachea. Cartilaginous parts of the tracheal ring are mounted horizontally between two metal rods, one of which is attached to a glass organholder, the other rod being connected to a Grass isometric transducer. Using such a technique the tracheal smooth muscle is suspended optimally i.e. midway between the cartilaginous parts. the prepared rings are suspended in a 100 ml organ chamber filled with Tyrode solution, maintained at 35° C. and aerated with 95% O2 and 5% CO2. The preparation is maintained at tension of 1.5 g throughout the experiment. Tension changes recorded are thus an expression of contraction or relaxation. After a stabilization period of 30 min contraction is induced by adding methacholine (1 μg/ml) to the bath for a 10 min period. Addition of isoprenaline (0.08 μg/ml) for 4 min. in the presence of methacholine induces a relaxation of the tracheal ring. This procedure is repeated twice before adding the drug (t-33'; t-19') and once 30 min after addition of the drug. During the incubation period any direct effects of the drug are measured. A 50% inhibition of the agonist-induced response is used as the criterion of effectiveness and ED50 values (with fiducial limits) are determined by probit analysis.
(§3) The ratio of the ED50 -values obtained in respectively the tracheal ring test (β2) and in the right atrium test (β1) may be considered as an index of the cardioselectivity of the test drug.

Experiment [2] addresses T1, β-adrenergic receptor (β2), guinea-pig tracheal ring (Cavia porcellus, UniProt Q8K4Z4).
T1 construct: The trachea is dissected from guinea-pigs; from tissue; host or cells: guinea-pig tracheal smooth muscle (rings)
Described as above. To be noted: Table I; guinea-pig tracheal ring, methacholine 1 μg/ml, isoprenaline 0.08 μg/ml, 30 min after drug, 35° C.; probit analysis; read-out: β2 = ED50 tracheal ring (converted).
Excerpt: as §1, §2, §3

The target of experiment [3] is T2, β-adrenergic receptor (β1), guinea-pig right atrium (Cavia porcellus, UniProt H0W3H1).
T2 construct: Spontaneously beating right atria are dissected from guinea-pigs; from tissue; host or cells: guinea-pig right atrium (strip with sinoatrial node)
T2 sequence (H0W3H1 1-470): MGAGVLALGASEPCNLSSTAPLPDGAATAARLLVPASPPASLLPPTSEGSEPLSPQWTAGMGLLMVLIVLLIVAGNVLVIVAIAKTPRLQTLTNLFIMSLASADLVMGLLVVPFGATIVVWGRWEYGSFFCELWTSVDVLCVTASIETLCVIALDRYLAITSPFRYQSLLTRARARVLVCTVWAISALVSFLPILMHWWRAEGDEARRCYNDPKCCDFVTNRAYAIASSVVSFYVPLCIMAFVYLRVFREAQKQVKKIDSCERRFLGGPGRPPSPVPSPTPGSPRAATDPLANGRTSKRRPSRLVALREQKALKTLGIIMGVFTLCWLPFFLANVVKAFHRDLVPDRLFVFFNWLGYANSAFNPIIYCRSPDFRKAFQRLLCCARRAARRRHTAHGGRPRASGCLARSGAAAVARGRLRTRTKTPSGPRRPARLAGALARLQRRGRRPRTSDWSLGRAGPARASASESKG
Description: Guinea-pig right atrium (β1): inhibition of isoprenaline-induced increase in heart rate. To be noted: Table I, isolated guinea-pig right atrium, drug incubation 30 min, 37.5° C., ED50 estimated graphically. The protocol: 1. GUINEA-PIG RIGHT ATRIUM (β1)
Spontaneously beating right atria are dissected from guinea-pigs (400±50 g). A triangular strip of atrium, including the sinoatrial node is excised together with the anterior vena cava.
The vena is fixed to a glass muscle holder and the opposite atrial muscle is connected to a Grass isometric transducer. Atria are suspended at optimal preload in a 100 ml Krebs-Henseleit solution, containing 2 g/l glucose, at 37.5° C. and aerated with 95% O2 and 5% CO2.
Heart rate and contractile force are recorded by means of a Grass FTO3C isometric transducer. Output signals amplified by an isometric transducer amplifier (J.S.I.) via a cardiotachometer (J.S.I.) are recorded on a Honeywell XYY' recorder. […] This produces a dose related increase in heart rate (a). After washing out isoprenaline a stabilization period of 15 min. is allowed. A drug is then added to the bath fluid for 30 min. During this incubation period possible direct chronotropic and inotropic effects of the drug are determined. Following this, a second dose-response curve for isoprenaline is produced by infusion during 10 minutes (b). The slope of the increase in rate is graphically estimated for each period of isoprenaline addition and the ratio b/a is calculated. Based on solvent experiments a ratio of less than 0.70 is considered as the criterion of inhibitory activity. ED50 -values are estimated graphically.

SMILES strings stand for the structures.

T1 sequence (Q8K4Z4 whole entry): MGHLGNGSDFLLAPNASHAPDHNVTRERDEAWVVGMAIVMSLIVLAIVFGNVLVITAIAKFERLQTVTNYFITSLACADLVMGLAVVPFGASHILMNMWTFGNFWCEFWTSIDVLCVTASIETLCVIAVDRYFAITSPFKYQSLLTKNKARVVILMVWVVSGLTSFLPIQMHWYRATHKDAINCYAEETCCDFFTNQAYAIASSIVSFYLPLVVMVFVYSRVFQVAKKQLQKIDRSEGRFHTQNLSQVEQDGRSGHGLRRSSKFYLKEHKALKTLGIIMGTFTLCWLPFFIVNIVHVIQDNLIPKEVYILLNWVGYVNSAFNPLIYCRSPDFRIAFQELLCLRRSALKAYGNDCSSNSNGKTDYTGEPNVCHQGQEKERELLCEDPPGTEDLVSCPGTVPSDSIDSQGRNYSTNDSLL

`CSc1ccc(OCC(O)CN2CCCC(Cn3c(=O)[nH]c4ccccc43)C2)cc1` (stereo not drawn) [4-(CH3 S)C6 H4, H]: the “β2/β1 (ratio of the ED50 values, tracheal ring to right atrium; index of cardioselectivity)” value in experiment [1] stood at 32. In addition, the IC50 in experiment [2] is 46.8 nM; in experiment [3], 1.47 nM.

Turning to `Cc1cccc(OCC(O)CN2CCCC(Cn3c(=O)[nH]c4ccccc43)C2)c1C` (stereo not drawn) [2,3-(CH3)2C6 H3, H], the “β2/β1 (ratio of the ED50 values, tracheal ring to right atrium; index of cardioselectivity)” value in experiment [1] stood at 8. Further, the IC50 was 48.8 nM in experiment [2] and 6.1 nM in experiment [3].

For `CCOc1ccccc1OCC(O)CN1CCCC(Cn2c(=O)[nH]c3ccccc32)C1` (stereo not drawn) [2-(C2 H5 O)C6 H4, H], the “β2/β1 (ratio of the ED50 values, tracheal ring to right atrium; index of cardioselectivity)” value in experiment [1] is 4. Moreover, the IC50 in experiment [2] was 23.5 nM; in experiment [3] it was 5.88 nM.

`CC(C)Oc1ccccc1OCC(O)CN1CCCC(Cn2c(=O)[nH]c3ccccc32)C1` (stereo not drawn) [2-(iC3 H7 O)C6 H4, H]: in experiment [1], the “β2/β1 (ratio of the ED50 values, tracheal ring to right atrium; index of cardioselectivity)” value is reported as 8. The IC50 in experiment [2] is 91 nM; in experiment [3], 11.4 nM.

For `O=c1[nH]c2ccc(Cl)cc2n1CC1CCCN(CC(O)COc2ccc(F)cc2)C1` (stereo not drawn) [4-FC6 H4,6-Cl], in experiment [1], the “β2/β1 (ratio of the ED50 values, tracheal ring to right atrium; index of cardioselectivity)” value came to 16. Further, the IC50 was 184 nM in experiment [2] and 11.5 nM in experiment [3].

Values taken from patent US4181802A, “1-(Heterocyclylalkyl)-1,3-dihydro-2-H-benzimidazole-2-ones” (Janssen Pharmaceutica N.V., priority 1978, dated 1980).
